In patent US8802675B2, “Neuroprotective multifunctional compounds and pharmaceutical compositions comprising them” (priority 2009, dated 2014):
Where two headings read alike, the source gives them in different places.

Assays:
Assay type in all cases: biochemical
[1] = biological target: T1, rat brain cholinesterase (total ChE) (Rattus norvegicus, UniProt P37136); assay: Kinetics of irreversible cholinesterase inhibition (Kitz-Wilson); details: for kinact: pH 7.4, read-out: k+2 (carbamylation rate constant); for kinact/KI: pH 7.4, read-out: ki (second-order rate inhibition constant, approximated by k+2/Ki)
T1 construct: rows headed: Ki (dissociation constant for EI); other: rat brain total ChE; mean of 3-4 experiments; k+2 (carbamylation rate constant); other: from ki; rate of carba
T1 sequence (P37136 32-614): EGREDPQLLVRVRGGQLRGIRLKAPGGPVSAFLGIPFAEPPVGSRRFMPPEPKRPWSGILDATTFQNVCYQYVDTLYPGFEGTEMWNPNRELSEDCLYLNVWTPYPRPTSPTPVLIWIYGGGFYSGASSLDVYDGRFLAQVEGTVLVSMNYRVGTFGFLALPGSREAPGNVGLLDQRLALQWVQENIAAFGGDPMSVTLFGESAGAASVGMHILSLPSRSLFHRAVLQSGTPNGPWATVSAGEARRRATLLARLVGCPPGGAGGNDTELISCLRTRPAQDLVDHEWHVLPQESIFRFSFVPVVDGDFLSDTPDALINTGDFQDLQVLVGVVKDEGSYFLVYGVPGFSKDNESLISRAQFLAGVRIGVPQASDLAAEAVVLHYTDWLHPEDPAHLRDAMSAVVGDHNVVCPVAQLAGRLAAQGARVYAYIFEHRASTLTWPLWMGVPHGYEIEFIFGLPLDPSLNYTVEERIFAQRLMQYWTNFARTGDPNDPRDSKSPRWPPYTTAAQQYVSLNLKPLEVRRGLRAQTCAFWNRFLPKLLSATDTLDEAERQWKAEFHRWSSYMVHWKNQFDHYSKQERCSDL
Description: To determine kinetic constants of irreversible inhibition, cholinesterase from rat brain homogenates was incubated with the multifunctional compounds of the invention for designed time intervals in phosphate buffer pH 7.4.
The residual cholinesterase activity was immediately measured with the Ellman's colorimetric method after addition of 5,5′-dithiobis(2-nitrobenzoic) acid and 1 mM acetylthiocholine iodide. The inhibition kinetics were assessed according to Kitz-Wilson equation:
[formula] wherein: E represents the enzyme; I represents the intact carbamate (inhibitor); EI is the initial reversible enzyme complex; E* is the carbamylated enzyme; Ki represents the dissociation constant for EI; k+2 is the carbamylation rate constant and k+3 is the decarbamylation rate constant; kapp is the pseudo-first-order inhibition rate constant; ki, the second-order rate inhibition constant, is approximated by k+2/Ki. Under experimental condition [I]>>[E0].
According to equation (2), the logarithm of the ratio of the residual cholinesterase activity (E) and the initial cholinesterase activity (E0) is plotted against the time of incubation. The slopes of the lines representing kapp were determined by linear regression.
The slopes of the lines represent the pseudo-first-order inhibition rate constant (kapp) determined from linear regression analysis. […] The carbamylation rate constant (k+2) was obtained from the y-intercept, and the dissociation constant ([…] was obtained from the slope of the line multiplied by k+2 as described in Materials and Methods.
From these lines, the values of kapp were calculated based on Equation (2) of the Kitz-Wilson equations (see Material and Methods). […] The carbamylation rate constant k+2 is a measure of inactivation of ChE.

[2] = biological target: T2, total cholinesterase (ChE) (Rattus norvegicus, UniProt P37136); assay: Total cholinesterase inhibition in rat brain homogenates (Ellman)
T2 sequence (P37136 32-614): T1 sequence (P37136 32-614)
Description: Cholinesterase activity was determined in rat brain homogenate following incubation with varying concentrations of the multifunctional pro-chelators of the invention (also referred to herein as “carbamates”).
Ellman's colorimetric method was adapted for determination of total cholinesterase (ChE) and butyrylcholinesterase (BuChE) activities in rat brain homogenates. Brain tissue from adult Wistar rats was homogenized at 2% w/v (or 10% w/v, for BuChE) in 0.1 M sodium phosphate buffer, pH 7.4, with added NaCl 58.5 g/l and Triton X-100 0.05% v/v. Aliquots of homogenate (20 μl) were incubated with the test compounds for designed time intervals in phosphate buffer pH 7.4, before addition of 5,5′-dithiobis(2-nitrobenzoic) acid and either 1 mM acetylthiocholine iodide or 10 mM butyrylthiocholine iodide (Sigma, St. Louis, Mo.). The reaction was run at 37° C. in a final volume of […] in 96-well microplates and was followed at 412 nm for 5 min with a plate reader. In every experiment, cholinesterase-independent (nonspecific) substrate hydrolysis was determined by including one experimental group treated with tacrine 30 μM. Appropriate tissue and reagent blanks were also included. Reaction velocities were determined in three or four replicates per condition; these were averaged and expressed as percent activity relative to control (solvent), after subtracting the rate of nonspecific hydrolysis.
The results are the mean SEM, n=3 in triplicates. ND—not determined.

AChE = AChE (Homo sapiens, UniProt P22303); assay: Conversion of pro-chelator by AChE into active chelator (UV-vis and MS of extract); details: extract from a solution of AChE titrated with metal salts
Description: When ZnCl2, or CuSO4 were titrated into the extract, two new bands at around 365 nm or 375 nm appeared, corresponding to the formation of […], respectively. […] This finding was reinforced by mass spectrometry analysis of the extract, which gave a value of m/z 227.22, corresponding to m/z of [M30+H]^+.
When FeCl3 or FeSO4 were titrated to an extract from a solution of AChE into which compound 23 was added, new bands at around 460 nm and 590 nm appeared exactly matching the absorption of HLA20−Fe in FIG. 2A. Titration of CuSO4 or ZnCl2 to the extract introduced new bands at around 370 nm or 360 nm, corresponding to the absorption of the complexes […], respectively.

Chain of AChE (P22303 32-614): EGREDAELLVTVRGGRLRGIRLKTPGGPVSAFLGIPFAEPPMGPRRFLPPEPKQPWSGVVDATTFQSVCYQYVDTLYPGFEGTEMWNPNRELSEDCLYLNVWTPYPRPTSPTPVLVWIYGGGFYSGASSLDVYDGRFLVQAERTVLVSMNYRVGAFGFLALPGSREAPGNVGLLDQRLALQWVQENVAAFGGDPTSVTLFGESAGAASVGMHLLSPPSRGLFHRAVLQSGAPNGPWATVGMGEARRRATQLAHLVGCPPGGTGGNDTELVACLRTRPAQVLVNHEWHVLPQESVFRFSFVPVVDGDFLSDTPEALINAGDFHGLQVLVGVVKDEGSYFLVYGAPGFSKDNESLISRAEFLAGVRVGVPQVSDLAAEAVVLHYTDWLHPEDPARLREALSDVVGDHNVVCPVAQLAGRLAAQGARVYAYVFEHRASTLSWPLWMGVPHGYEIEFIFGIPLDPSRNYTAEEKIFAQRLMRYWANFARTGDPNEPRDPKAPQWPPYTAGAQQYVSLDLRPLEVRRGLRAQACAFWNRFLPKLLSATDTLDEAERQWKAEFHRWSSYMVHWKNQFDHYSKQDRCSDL

| SMILES | kinact [1] | kinact/KI [1] | IC50 ([2]; rat brain homogenates, mean SEM, n=3 in triplicates) | potency in inhibiting ChE relative to rivastigmine ([1]; from ki) | conversion by AChE to active chelator (AChE) | IC50 [2] |
| --- | --- | --- | --- | --- | --- | --- |
| C#CCN(C)Cc1ccc(OC(=O)N(C)CC)c2ncccc12 [Compound 3, 5-((methyl(propargyl)amino)methyl)quinolin-8-yl ethyl(methyl)carbamate] | 0.0045 s⁻¹ | 39 M⁻¹ s⁻¹ | 9.8 µM | – | – | – |
| C#CCN(C)Cc1ccc(OC(=O)N2CCCC2)c2ncccc12 [Compound 5, 5-((methyl(propargyl)amino)methyl)quinolin-8-yl pyrrolidine-1-carboxylate] | 0.00283 s⁻¹ | 41 M⁻¹ s⁻¹ | – | half potent | – | – |
| C#CCN(C)Cc1ccc(OC(=O)N2CCN(Cc3ccccc3)CC2)c2ncccc12 [Compound 13, 5-((methyl(propargyl)amino)methyl)quinolin-8-yl 4-benzyl piperazine-1-carboxylate] | 0.00167 s⁻¹ | 168 M⁻¹ s⁻¹ | – | – | converted by AChE back into M30 | – |
| C#CCC1CCN(Cc2ccc(OC(=O)N(C)C)c3ncccc23)CC1 [Compound 23, 5-((4-(propargyl)piperidin-1-yl)methyl)quinolin-8-yl dimethylcarbamate] | 0.00233 s⁻¹ | 242 M⁻¹ s⁻¹ | – | – | converted compound 23 back into HLA20 | – |
| C#CCN(C)Cc1ccc(O)c2ncccc12 [M30, reference compound] | – | – | – | – | – | 114 µM |
